Assay results: US20220218664A1, “DRUG AND METHOD FOR TREATING OR PREVENTING COMPLICATIONS FROM DIABETES, USING SAID DRUG” (TMS Co., Ltd., priority 2019, published 2022)

Legend:
IL-1β = assay: Inflammatory cytokine IL-1β in sciatic nerve (ELISA); type: in vivo, C57BL/6J male mice; details: 4th week
Procedure: (§1) 9-week-old C57BL/6J male mice were purchased and familiarized with an animal facility for 1 week. 200 mg/kg of streptozotocin (streptozotocin; STZ) was administered […] into the peritoneal cavity of 10-week-old mice to prepare streptozotocin-induced diabetic mice (hereinafter also referred to as “STZ administration week 0”). One week after the administration of streptozotocin, blood was collected from the tail vein of the mice, and the blood glucose level (BS) was measured using an automatic blood glucose measuring device (product name: Medisafe (trademark) Mini GR-102, made by Terumo (Co)). Mice having a blood glucose level of 400 mg/dL or more were determined to be diabetic mice.
(§2) The SMTP-44D groups, the edaravone group, and the pregabalin group were administered SMTP-44D (0.3 mg/kg, 3 mg/kg, or 30 mg/kg doses, respectively), edaravone (10 mg/kg dose), or pregabalin (10 mg/kg dose) into the peritoneal cavity once a day for 3 consecutive weeks from the day following the first week to the fourth week after STZ administration.
(§3) The sciatic nerves of the above-mentioned STZ group, SMTP-44D group (30 mg/kg), edaravone group, pregabalin group, and control group mice on the 4th week were homogenized using the RIPA buffer containing a protease inhibitor cocktail. Moreover, centrifugation was conducted at 4° C. for 15 minutes at 10,000 g, and the supernatant was collected and used for measuring TNF-α concentration (pg/mL), IL-1β concentration (pg/mL), IL-6 concentration (pg/mL), and total protein concentration (μg/mL), respectively. An ELISA assay kit was used for the TNF-α, IL-1β, and IL-6 concentrations. The total protein concentration was measured by using a Pierce (trademark) BCA Protein Assay Kit. The inflammatory cytokine level (pg/mg protein) in the total protein was calculated from the TNF-α concentration (pg/mL), IL-1β concentration (pg/mL), and IL-6 concentration (pg/mL), and total protein concentration (μg/mL).

[1] = Body weight (BW) in streptozotocin-induced diabetic mice; type: in vivo, C57BL/6J male mice
Procedure: as §1, §2
(§4) For the above-mentioned STZ group, SMTP-44D groups, edaravone group, pregabalin group, and control group mice, the following measurements were conducted every week from the 0th week, which began on the day when streptozotocin (STZ) was administered, to the 4th week (that is, a total of five times). As algesia tests, the following von Frey test and hot plate test were conducted, and hind plantar blood flow, body weight (BW), and blood glucose level (BS) were measured using the above-mentioned automatic blood glucose measure device. Note, for example, the 0th week represents the 0th day. That is, the measurements were conducted on the 0th, 7th, 14th, 21st, and 28th days.

[2] = system: streptozotocin-induced diabetic mice; assay: Blood glucose level (BS) in streptozotocin-induced diabetic mice; type: in vivo, C57BL/6J male mice
Procedure: as §1, §2, §4

[3] = system: streptozotocin-induced diabetic mice; assay: Hot plate test: evaluating thermal stimulus; type: in vivo, C57BL/6J male mice
Procedure: as §1, §2
The above-mentioned STZ group, SMTP-44D groups, edaravone group, pregabalin group, and control group mice were put in grid-like boxes, respectively, and were left for 30 minutes. After having been left, an acrylic disc (diameter: 20 cm; height (that is, thickness of the acrylic disc): […]) was placed on an EC hot plate (model number: EC1200) maintained at 49 to 50° C., and the mice were put on the acrylic disc. The measurements were started after the mice landed on the EC hot plate. The times from the mice landing to their action to jump or lick their hind legs were evaluated as thermal thresholds (seconds: s). Note, to avoid burns on their plantae, the measurements were ceased 30 seconds after beginning. The measurements were conducted three times at 30-minute intervals. A mean value of three thermal thresholds (seconds: s) was calculated for 1 mouse, and then a mean value of the 12 mice for the respective groups was found.

IL-6 = assay: Inflammatory cytokine IL-6 in sciatic nerve (ELISA); type: in vivo, C57BL/6J male mice; details: 4th week
Procedure: as §1, §2, §3

[4] = system: diabetic nephropathy model mice; assay: Urine volume (24 h, metabolic cage); type: in vivo, Male db/db mice; details: 30 mg/kg i.p. once every two days for 10 weeks; 16 weeks old; 24 h urine
[5] = system: diabetic nephropathy model mice; assay: Blood glucose level in diabetic nephropathy model mice; type: in vivo, Male db/db mice; details: 30 mg/kg i.p. once every two days for 10 weeks; 16 weeks old
[6] = Body weight in diabetic nephropathy model mice; type: in vivo, Male db/db mice; details: 30 mg/kg i.p. once every two days for 10 weeks; 16 weeks old
[7] = system: diabetic nephropathy model mice; assay: Urinary albumin; details: 30 mg/kg i.p. once every two days for 10 weeks; 16 weeks old
[8] = system: diabetic nephropathy model mice; assay: Serum creatinine; details: 30 mg/kg i.p. once every two days for 10 weeks; 16 weeks old
[9] = 10 mg/kg i.p. once a day, listed as edaravone
[10] = 10 mg/kg i.p. once a day, 0th week (before dosing)
[11] = 10 mg/kg i.p. once a day, 0th week (before dosing), listed as edaravone
[12] = 10 mg/kg i.p. once a day, 1st week (before dosing)
[13] = 10 mg/kg i.p. once a day, 1st week (before dosing), listed as edaravone
[14] = 10 mg/kg i.p. once a day, 2nd week
[15] = 10 mg/kg i.p. once a day, 2nd week, listed as edaravone
[16] = 10 mg/kg i.p. once a day, 3rd week
[17] = 10 mg/kg i.p. once a day, 3rd week, listed as edaravone
[18] = 10 mg/kg i.p. once a day, 4th week
[19] = 10 mg/kg i.p. once a day, 4th week, listed as edaravone
[20] = 30 mg/kg i.p. once a day, 0th week (before dosing)
[21] = 30 mg/kg i.p. once a day, 1st week (before dosing)
[22] = 30 mg/kg i.p. once a day, 3rd week
[23] = 30 mg/kg i.p. once a day, 4th week
[24] = 30 mg/kg i.p. once a day, 2nd week

## CC1=NN(c2ccccc2)C(=O)C1 [Edaravone, edaravone]
IL-1β; 10 mg/kg i.p. once a day
  IL-1β: 24.54 ± 4.52 pg/mg protein
IL-1β; [9]
  IL-1β: 24.54±4.52 pg/mg protein
[1]; 10 mg/kg i.p. once a day
  Body weight decrease between the 0th week and 4th week: 2.4 g
[1]; [10]
  BW (body weight): 23.4 ± 0.3 g
[1]; [11]
  BW (body weight): 23.4 ± 0.3 g
[1]; [12]
  BW (body weight): 21.9 ± 0.4 g
[1]; [13]
  BW (body weight): 21.9 ± 0.4 g
[1]; [14]
  BW (body weight): 21.6 ± 0.4 g
[1]; [15]
  BW (body weight): 21.6 ± 0.4 g
[1]; [16]
  BW (body weight): 21.3 ± 0.5 g
[1]; [17]
  BW (body weight): 21.3 ± 0.5 g
[1]; [18]
  BW (body weight): 21.0 ± 0.5 g
[1]; [19]
  BW (body weight): 21.0 ± 0.5 g
[2]; [11]
  BS (blood glucose level): 221.0 ± 7.3 mg/dL
[2]; [12]
  BS (blood glucose level): 566.0 ± 32.6 mg/dL
[2]; [13]
  BS (blood glucose level): 566.0 ± 32.6 mg/dL
[2]; [14]
  BS (blood glucose level): 567.5 ± 28.0 mg/dL
[2]; [15]
  BS (blood glucose level): 567.5 ± 28.0 mg/dL
[2]; [16]
  BS (blood glucose level): 617.7 ± 373.3 mg/dL
[2]; [17]
  BS (blood glucose level): 617.7 ± 37.3 mg/dL
[2]; [18]
  BS (blood glucose level): 565.3 ± 35.1 mg/dL
[2]; [19]
  BS (blood glucose level): 565.3 ± 35.1 mg/dL
[3]; [10]
  Hot plate test thermal threshold: 20.8 ± 0.5 s
[3]; [11]
  Hot plate test thermal threshold: 20.8 ± 0.5 s
[3]; [12]
  Hot plate test thermal threshold: 15.7 ± 0.8 s
[3]; [13]
  Hot plate test thermal threshold: 15.7 ± 0.8 s
[3]; [14]
  Hot plate test thermal threshold: 15.5 ± 1.2 s
[3]; [15]
  Hot plate test thermal threshold: 15.5 ± 1.2 s
[3]; [16]
  Hot plate test thermal threshold: 15.4 ± 0.9 s
[3]; [17]
  Hot plate test thermal threshold: 15.4 ± 0.9 s
[3]; [18]
  Hot plate test thermal threshold: 16.0 ± 0.8 s
[3]; [19]
  Hot plate test thermal threshold: 16.0 ± 0.8 s
IL-6; 10 mg/kg i.p. once a day
  IL-6: 165.83 ± 10.21 pg/mg protein
IL-6; [9]
  IL-6: 165.83±10.21 pg/mg protein

## CC(C)=CCCC(C)=CCCC1(C)Oc2c(c(O)cc3c2CN(C(C(=O)O)c2ccc(O)cc2)C3=O)CC1O (stereo not drawn) [SMTP-44D]
IL-1β; 30 mg/kg i.p. once a day
  IL-1β: 24.90±4.05 pg/mg protein
[4]
  Urine volume: 1268.3 ± 137.4 µL
[5]
  Blood glucose levels compared to the DN group: No significant changes
[1]; 30 mg/kg i.p. once a day
  Body weight decrease between the 0th week and 4th week: 1.5 g
[1]; [20]
  BW (body weight): 23.0 ± 0.4 g
[1]; [21]
  BW (body weight): 21.7 ± 0.5 g
[1]; [22]
  BW (body weight): 21.3 ± 0.6 g
[1]; [23]
  BW (body weight): 21.5 ± 0.5 g
[6]
  Body weight compared to the DN group: No significant changes
[2]; [20]
  BS (blood glucose level): 203.5 ± 5.5 mg/dL
[2]; [21]
  BS (blood glucose level): 535.5 ± 28.7 mg/dL
[2]; [24]
  BS (blood glucose level): 597.3 ± 44.8 mg/dL
[2]; [22]
  BS (blood glucose level): 638.7 ± 34.2 mg/dL
[2]; [23]
  BS (blood glucose level): 580.3 ± 42.9 mg/dL
[7]
  Urinary albumin: 0.3 ± 0.1 mg/h/kg
[8]
  Serum creatinine: 0.4 ± 0.1 mg/dL
[3]; 0.3 mg/kg i.p. once a day, 0th week (before dosing)
  Hot plate test thermal threshold: 22.8 ± 1.2 s
[3]; 0.3 mg/kg i.p. once a day, 1st week (before dosing)
  Hot plate test thermal threshold: 14.3 ± 1.0 s
[3]; 0.3 mg/kg i.p. once a day, 2nd week
  Hot plate test thermal threshold: 14.0 ± 1.4 s
[3]; 0.3 mg/kg i.p. once a day, 3rd week
  Hot plate test thermal threshold: 13.3 ± 1.3 s
[3]; 0.3 mg/kg i.p. once a day, 4th week
  Hot plate test thermal threshold: 13.1 ± 0.6 s
[3]; 3 mg/kg i.p. once a day, 0th week (before dosing)
  Hot plate test thermal threshold: 21.0 ± 1.3 s
[3]; 3 mg/kg i.p. once a day, 1st week (before dosing)
  Hot plate test thermal threshold: 14.6 ± 1.4 s
[3]; 3 mg/kg i.p. once a day, 2nd week
  Hot plate test thermal threshold: 15.4 ± 0.8 s
[3]; 3 mg/kg i.p. once a day, 3rd week
  Hot plate test thermal threshold: 15.1 ± 1.1 s
[3]; 3 mg/kg i.p. once a day, 4th week
  Hot plate test thermal threshold: 15.1 ± 1.3 s
[3]; [20]
  Hot plate test thermal threshold: 21.3 ± 0.4 s
[3]; [21]
  Hot plate test thermal threshold: 15.0 ± 0.7 s
[3]; [24]
  Hot plate test thermal threshold: 18.0 ± 1.2 s
[3]; [22]
  Hot plate test thermal threshold: 18.4 ± 1.3 s
[3]; [23]
  Hot plate test thermal threshold: 18.2 ± 1.1 s
IL-6; 30 mg/kg i.p. once a day
  IL-6: 143.41±8.08 pg/mg protein
